In the supplement of paper PMC5844555:

Tests used:
Assay in all cases: 3' UTR reporter interaction score (median-centred robust z-score of log2 firefly/Renilla activity); higher = less repression of the 3' UTR reporter
Settings in all cases: HEK293T; 48 h
MYC = tested on: MYC
Method in brief: (§1)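 For the interaction score, the firefly/Renilla ratio was log-transformed, expressed as a robust z-score per plate using median and median absolute deviation, and median-centred per miRNA; a more negative score indicates interaction. These scores come from at least two independent screens, averaged. Each screen used HEK293T cells at 10,000/well in 96-well plates, co-transfected with DharmaFECT Duo carrying 100 ng luc2P 3' UTR reporter, 20 ng pRL-TK and 2.5 pmol miRNA mimic, with luciferase read at 48 h.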

NOTCH1 = tested on: NOTCH1
Method in brief: as §1

FBXW7 = tested on: FBXW7
Method in brief: as §1

PHOX2B = tested on: PHOX2B
Method in brief: as §1

BRCA2 = tested on: BRCA2
Method in brief: as §1

MYT1L = tested on: MYT1L
Method in brief: as §1

ZEB2 = tested on: ZEB2
Method in brief: as §1

PHF6 = tested on: PHF6
Method in brief: as §1

MYCN = tested on: MYCN
Method in brief: as §1

HRAS = tested on: HRAS
Method in brief: as §1

EZH2 = tested on: EZH2
Method in brief: as §1

RB1 = tested on: RB1
Method in brief: as §1

TP53 = tested on: TP53
Method in brief: as §1

MYB = tested on: MYB
Method in brief: as §1

Sequence | 3' UTR reporter interaction score (MYC) | 3' UTR reporter interaction score (NOTCH1) | 3' UTR reporter interaction score (FBXW7) | 3' UTR reporter interaction score (PHOX2B) | 3' UTR reporter interaction score (BRCA2) | 3' UTR reporter interaction score (MYT1L) | 3' UTR reporter interaction score (ZEB2) | 3' UTR reporter interaction score (PHF6) | 3' UTR reporter interaction score (MYCN) | 3' UTR reporter interaction score (HRAS) | 3' UTR reporter interaction score (EZH2) | 3' UTR reporter interaction score (RB1) | 3' UTR reporter interaction score (TP53) | 3' UTR reporter interaction score (MYB)
UCUACAAAGGGAAGCCCUUUCUG | -0.127 | -0.427 | -0.547 | -0.778 | 0.423 | 0.66 | -0.71 | 0.0225 | 0.12 | -0.0822 | 0.229 | 0.712 | -0.365 | 0.56
UUCAAGUAAUUCAGGAUAGGUU | -1.49 | 1.02 | 1.51 | 0.967 | 0.455 | 1.44 | 0.133 | -0.939 | 0.732 | -1.14 | -4.18 | -1.95 | -0.282 | 1.26
UCCAGCUCCUAUAUGAUGCCUUU | 0.624 | -1.09 | 0.91 | -0.208 | 0.152 | -1.49 | -2.75 | -0.704 | -0.396 | -0.216 | 0.255 | -0.767 | 0.0762 | 0.963
GUGCAUUGCUGUUGCAUUGCA | -1.33 | 0.367 | -0.35 | 0.67 | -0.52 | 0.516 | -2.34 | -0.271 | 0.79 | -0.237 | 0.0384 | -0.687 | 0.631 | -2.09
UUCCCUUUGUCAUCCUUCGCCU | -0.168 | -0.19 | -1.31 | -4.93 | 0.539 | -0.268 | -0.675 | 0.344 | 0.0207 | -0.327 | 0.0327 | 0.903 | -0.355 | 0.781
UCUCCCAACCCUUGUACCAGUG | 0.62 | -0.369 | -1.26 | -0.32 | 0.0345 | 0.779 | 0.808 | 0.168 | 0.5 | 0.137 | 0.195 | -0.714 | -0.706 | -6.53
CCCAGUGUUUAGACUAUCUGUUC | 0.186 | -0.226 | -0.738 | -0.251 | 0.494 | 1.93 | 0.476 | 0.458 | 0.905 | -0.315 | -0.185 | -0.794 | -0.323 | 0.059
AAUAAUACAUGGUUGAUCUUU | 0.609 | -0.442 | -0.364 | -0.121 | -0.146 | -0.318 | -1.86 | 1.16 | -0.572 | -0.598 | 0.433 | -0.0974 | -0.77 | 0.0772
AGUAUGUUCUUCCAGGACAGAAC | 0.576 | -0.607 | 0.574 | -1.01 | -2.15 | -0.575 | 0.181 | -0.447 | -0.169 | 0.113 | 0.482 | 0.243 | 0.258 | 0.712
AUCGGGAAUGUCGUGUCCGCC | -1.57 | -0.49 | 0.361 | 0.773 | 0.225 | -0.0689 | 0.211 | 1.55 | -0.166 | 0.0629 | -0.604 | -0.355 | 0.313 | -0.74
CAAGUCACUAGUGGUUCCGUUUA | -1.07 | 1.15 | 1.35 | 0.0612 | 0.252 | -1.25 | 1.99 | -0.71 | -0.0757 | -1.48 | 0.168 | 1.58 | -0.393 | -0.363
AAAGUGCUGCGACAUUUGAGCGU | 0.745 | 1.03 | 0.296 | 0.221 | 0.603 | -0.68 | -0.121 | 1.58 | 0.612 | 0.79 | -1.36 | 1.06 | -1.1 | -1.18
CUCUAGAGGGAAGCACUUUCU | 0.565 | 0.59 | -1.73 | -1.07 | -0.166 | -0.138 | 1.31 | -0.252 | -0.174 | 0.934 | -0.021 | -0.897 | -0.127 | 1.78
GAGGUUGUCCGUGGUGAGUUCG | -2.33 | 0.138 | -1.94 | 0.511 | -0.325 | 0.00527 | 0.323 | -0.125 | -0.211 | -0.768 | -0.239 | -0.327 | -0.45 | 0.0834
UAAAUCCCAUGGUGCCUUCUCCU | 0.0891 | 0.16 | -0.794 | 0.298 | 0.0242 | -0.319 | -0.698 | 1.14 | 1.04 | -0.598 | 0.24 | 0.989 | 0.00864 | -0.131
AUGAUCCAGGAACCUGCCUCU | 0.0276 | 0.405 | 1.33 | -1.8 | 0.796 | -2.69 | -0.647 | -2.82 | 0.642 | -0.133 | 1.23 | -0.262 | -0.239 | -0.332
UGUAAACAUCCUACACUCAGCU | -0.616 | -0.804 | 0.842 | -0.561 | 0.276 | 0.998 | -1.14 | -1.63 | -0.781 | 1.01 | 0.233 | 0.456 | -0.377 | 0.789
AUCAACAGACAUUAAUUGGGCGC | -1.29 | -1.2 | 1.67 | -0.111 | 1.26 | -0.0651 | 1.91 | -1.06 | -0.34 | 1.56 | 1.19 | 1.49 | -1.55 | 0.0314
CAAAAAUCUCAAUUACUUUUGC | 0.393 | -0.966 | 0.748 | 0.42 | -0.215 | 0.42 | -0.266 | -0.915 | 0.123 | -0.151 | 0.0697 | -0.319 | 0.17 | -1.38
